Data on 24 molecules can be found in patent US7803793B2, “Heterocyclic derived metalloprotease inhibitors” (Janssen Pharmaceutica NV, priority 2006, dated 2010).

In one assay the target is T1, MMP-9 (Homo sapiens, UniProt P14780).
T1 construct: Human MMP-9 catalytic domain (aa 107-446)
Nature of the assay: MMP enzymatic assay (Trupoint peptide), MMP-9. The format is biochemical. The method, then:
[formula] • 1) Prepare appropriate 1×MMP assay buffer from 10× stock. […] The plate setup should be as follows, using GM6001 as plate reference compound:
• 6) Serially dilute 10 μl down the plate to achieve 1:3 dilutions in subsequent wells. After each dilution, change pipette tips to avoid compound carryover. […] Will need 10 ml enzyme solution per plate. Add enzyme to plate, 20 μl per well. Incubate 1 hr.
Prepare 5 ml total per plate. Add 10 ul of substrate to each well to achieve a final concentration of 100 nM in well. […] Read in plate reader.
(§1) Analysis Specifications • Calculate average background value from substrate/assay buffer wells • Subtract this from entire plate • Calculate average of DMSO wells for each enzyme. This is the positive control, 100% value. • For each well, calculate percent of control by dividing well value by the average DMSO value obtained above. • Paste percent of control values into Graphpad Prism 4.0.

In a further assay the target is T2, MMP-2 (Homo sapiens, UniProt P08253).
T2 construct: Human MMP-2 full length (aa 1-660)
T2 sequence (P08253 30-660): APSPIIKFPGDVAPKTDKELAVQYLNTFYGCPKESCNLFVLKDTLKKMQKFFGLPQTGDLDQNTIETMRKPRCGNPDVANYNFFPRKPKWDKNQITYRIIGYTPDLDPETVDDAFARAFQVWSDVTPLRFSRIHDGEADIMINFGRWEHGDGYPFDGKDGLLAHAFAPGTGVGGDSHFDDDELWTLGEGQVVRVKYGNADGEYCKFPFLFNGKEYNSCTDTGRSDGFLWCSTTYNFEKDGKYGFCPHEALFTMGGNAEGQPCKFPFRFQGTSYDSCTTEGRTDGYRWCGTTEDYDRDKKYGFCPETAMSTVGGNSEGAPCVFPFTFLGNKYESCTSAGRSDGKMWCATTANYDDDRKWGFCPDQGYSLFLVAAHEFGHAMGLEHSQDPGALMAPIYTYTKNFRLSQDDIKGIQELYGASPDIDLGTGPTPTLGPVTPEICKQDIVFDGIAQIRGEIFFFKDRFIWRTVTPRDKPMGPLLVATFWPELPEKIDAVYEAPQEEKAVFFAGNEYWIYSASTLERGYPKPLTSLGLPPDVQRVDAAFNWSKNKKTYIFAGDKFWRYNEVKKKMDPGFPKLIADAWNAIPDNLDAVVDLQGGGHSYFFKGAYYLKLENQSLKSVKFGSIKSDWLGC
Kind of assay: MMP enzymatic assay (Trupoint peptide), MMP-2. The format is biochemical. The method, then:
[formula] • 1) Prepare appropriate 1×MMP assay buffer from 10× stock. […] Need to prepare a 2.5× concentration stock (2.5 μM) to achieve this concentration in 50 μl. Dilute compound to 2.5 mM in 100% DMSO (a 1:40 dilution), then dilute the 2.5 mM compound to 2.5 μM (1:1000) into 1× assay buffer. Make 1 ml 2.5 μM compound in assay buffer. • 4) Fill the rows B through P of a 384-well plate with assay buffer+0.1% DMSO. • 5) Add 30 ul of the 2.5 μM compound in assay buffer to the top row of the plate, doing each compound in triplicate. The plate setup should be as follows, using GM6001 as plate reference compound:
• 6) Serially dilute 10 μl down the plate to achieve 1:3 dilutions in subsequent wells. After each dilution, change pipette tips to avoid compound carryover. Discard the remaining 10 μl after diluting into the final row. • 7) Prepare enzyme dilutions at 2.5× of final desired concentration (see below). Will need 10 ml enzyme solution per plate. Add enzyme to plate, 20 μl per well. Incubate 1 hr.
• 8) Dilute the 500 μM Trupoint peptide 1:1000 into assay buffer to achieve a 5× working stock of 500 nM. Prepare 5 ml total per plate. Add 10 ul of substrate to each well to achieve a final concentration of 100 nM in well. Also prepare background subtraction wells by adding 10 μl 5× substrate to 40 μl assay buffer per well, typically do ˜32 wells. • 9) Incubate assay at room temperature for 15 min. Read in plate reader.
as §1

Like-named read-outs stand apart in the source and are kept apart here.

By IC50 is commonly meant the concentration needed to halve the response being measured.

T1 sequence (P14780 107-446): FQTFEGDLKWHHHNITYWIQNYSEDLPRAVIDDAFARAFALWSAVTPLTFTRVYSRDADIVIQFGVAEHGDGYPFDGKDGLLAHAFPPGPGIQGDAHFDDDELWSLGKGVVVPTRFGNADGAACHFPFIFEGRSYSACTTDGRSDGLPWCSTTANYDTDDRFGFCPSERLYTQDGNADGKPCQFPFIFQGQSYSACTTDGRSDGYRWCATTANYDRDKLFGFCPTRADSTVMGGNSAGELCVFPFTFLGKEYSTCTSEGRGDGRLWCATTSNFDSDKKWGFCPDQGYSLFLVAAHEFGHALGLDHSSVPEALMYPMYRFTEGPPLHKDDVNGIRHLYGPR

With `Cc1ccc(Oc2ccc(N(Cc3cccn(O)c3=S)S(C)(=O)=O)cc2)cc1` [Compound 47, N-(1-Hydroxy-2-thioxo-1,2-dihydro-pyridin-3-ylmethyl)-N-(4-p-tolyloxy-phenyl)-methanesulfonamide], the figures for the IC50 on MMP-9 and against MMP-2 were 486 nM and more than 1000 nM, respectively.

For the molecule `Cc1ccc(Oc2ccc(N(Cc3c(C)ccn(O)c3=O)S(C)(=O)=O)cc2)cc1` [Compound 48, N-(1-Hydroxy-4-methyl-2-oxo-1,2-dihydro-pyridin-3-ylmethyl)-N-(4-p-tolyloxy-phenyl)-methanesulfonamide], the IC50 at MMP-9 is 457 nM; at MMP-2, more than 1000 nM.

`Cc1ccc(Oc2ccc(N(Cc3cc(Br)cn(O)c3=O)S(C)(=O)=O)cc2)cc1` [Compound 49, N-(5-Bromo-1-hydroxy-2-oxo-1,2-dihydro-pyridin-3-ylmethyl)-N-(4-p-tolyloxy-phenyl)-methanesulfonamide]: the IC50 against MMP-9 was found to be 116 nM; against MMP-2 it was 547 nM.

As for `Cc1ccc(Oc2ccc(N(C(C)c3cccn(O)c3=O)S(C)(=O)=O)cc2)cc1` (stereo not drawn) [Compound 50, N-[1-(1-Hydroxy-2-oxo-1,2-dihydro-pyridin-3-yl)-ethyl]-N-(4-p-tolyloxy-phenyl)-methanesulfonamide], the IC50 on MMP-9 stood at 223 nM; on MMP-2, 2550 nM.

As to `Cc1ccc(Oc2ccc(N(Cc3cc(C)cn(O)c3=O)S(C)(=O)=O)cc2)cc1` [Compound 51, N-(1-Hydroxy-5-methyl-2-oxo-1,2-dihydro-pyridin-3-ylmethyl)-N-(4-p-tolyloxy-phenyl)-methanesulfonamide], the IC50 against MMP-9 was 43.9 nM; at MMP-2, 241 nM.

Regarding `Cc1ccc(Oc2ccc(N(Cc3cc(-c4ccccc4)cn(O)c3=O)S(C)(=O)=O)cc2)cc1` [Compound 52, N-(1-Hydroxy-2-oxo-5-phenyl-1,2-dihydro-pyridin-3-ylmethyl)-N-(4-p-tolyloxy-phenyl)-methanesulfonamide], the half-inhibitory concentration (IC50) at MMP-9 worked out at 317 nM; at MMP-2, 914 nM.

As to `COc1ccc(Oc2ccc(N(Cc3cccn(O)c3=O)S(C)(=O)=O)cc2)cc1` [Compound 53, N-(1-Hydroxy-2-oxo-1,2-dihydro-pyridin-3-ylmethyl)-N-[4-(4-methoxy-phenoxy)-phenyl]-methanesulfonamide], the values for the IC50 against MMP-9 and on MMP-2 were 14.7 nM and 184 nM, respectively.

As to `CS(=O)(=O)N(Cc1cccn(O)c1=O)c1ccc(Oc2ccc(OC(F)(F)F)cc2)cc1` [Compound 54, N-(1-Hydroxy-2-oxo-1,2-dihydro-pyridin-3-ylmethyl)-N-[4-(4-trifluoro-methoxy-phenoxy)-phenyl]-methanesulfonamide], the IC50 at MMP-9 is 11.1 nM; at MMP-2, 466 nM.

As for `Cc1ccc(C#Cc2ccc(N(Cc3cccn(O)c3=O)S(C)(=O)=O)cc2)cc1` [Compound 55, N-(1-Hydroxy-2-oxo-1,2-dihydro-pyridin-3-ylmethyl)-N-(4-p-tolylethynyl-phenyl)-methanesulfonamide], the IC50 against MMP-9 and against MMP-2 was more than 10000 nM each time.

Regarding `Cc1ccc(C#Cc2ccc(N(Cc3cccn(O)c3=S)S(C)(=O)=O)cc2)cc1` [Compound 56, N-(1-Hydroxy-2-thioxo-1,2-dihydro-pyridin-3-ylmethyl)-N-(4-p-tolylethynyl-phenyl)-methanesulfonamide], the IC50 at MMP-9 and against MMP-2 was more than 10000 nM throughout.

For the molecule `O=C1[C@H](NS(=O)(=O)c2ccc(Oc3ccc(C(F)(F)F)cc3)cc2)CCCN1O` [Compound 58, (R)—N-(1-Hydroxy-2-oxo-piperidin-3-yl)-4-(4-trifluoromethyl-phenoxy)-benzenesulfonamide], the half-inhibitory concentration (IC50) at MMP-9 amounted to 743 nM; at MMP-2, 46.7 nM.

Take `Cc1ccc(S(=O)(=O)Cn2cccc(O)c2=O)cc1` [Compound 60, 3-Hydroxy-1-(toluene-4-sulfonylmethyl)-1H-pyridin-2-one]: the figures for the IC50 against MMP-9 and at MMP-2 (read-out: MMP-2 nM IC50) were 1070 nM and 468 nM, respectively.

Take `Cc1ccc(Oc2ccc(S(=O)(=O)Cn3cccc(O)c3=O)cc2)cc1` [Compound 61, 3-Hydroxy-1-(4-p-tolyloxy-benzenesulfonylmethyl)-1H-pyridin-2-one]: the IC50 on MMP-9 came to 45.8 nM; on MMP-2 (read-out: MMP-2 nM IC50) it was 16.7 nM.

With `O=c1c(O)cccn1CS(=O)(=O)c1ccc(Oc2ccc(OC(F)(F)F)cc2)cc1` [Compound 62, 3-Hydroxy-1-[4-(4-trifluoromethoxy-phenoxy)-benzenesulfonylmethyl]-1H-pyridin-2-one], the IC50 against MMP-9 is 4.91 nM; on MMP-2 it was 13.6 nM.

Take `O=c1c(O)cccn1CS(=O)(=O)c1ccc(Br)s1` [Compound 63, 1-(5-Bromo-thiophene-2-sulfonylmethyl)-3-hydroxy-1H-pyridin-2-one]: the IC50 at MMP-9 is 668 nM; at MMP-2, more than 1000 nM.

Regarding `COc1ccc(-c2ccc(S(=O)(=O)Cn3cccc(O)c3=O)s2)cc1` [Compound 64, 3-Hydroxy-1-[5-(4-methoxy-phenyl)-thiophene-2-sulfonylmethyl]-1H-pyridin-2-one], the IC50 against MMP-9 amounted to 522 nM; at MMP-2 (read-out: MMP-2 nM IC50), 185 nM.

On to `O=c1c(O)cccn1CS(=O)(=O)c1ccc(Br)cc1` [Compound 65, 1-(4-Bromo-benzenesulfonylmethyl)-3-hydroxy-1H-pyridin-2-one], for which the half-maximal inhibitory concentration (IC50) on MMP-9 and at MMP-2 was more than 1000 nM each time.

Turning to `COc1ccc(Oc2ccc(S(=O)(=O)Cn3cccc(O)c3=O)cc2)cc1` [Compound 66, 3-Hydroxy-1-[4-(4-methoxy-phenoxy)-benzenesulfonylmethyl]-1H-pyridin-2-one], the IC50 on MMP-9 is 56.1 nM; at MMP-2 (read-out: MMP-2 nM IC50) it was 84.5 nM.

In the case of `COc1ccc(-c2ccc(S(=O)(=O)Cn3cccc(O)c3=O)cc2)cc1` [Compound 67, 3-Hydroxy-1-(4′-methoxy-biphenyl-4-sulfonylmethyl)-1H-pyridin-2-one], the IC50 against MMP-9 and against MMP-2 was more than 10000 nM throughout.

`CN1CCCN(O)C(=O)[C@@H]1CN(c1ccc(Oc2ccc(C(F)(F)F)cc2)cc1)S(C)(=O)=O` [Compound 68, (3S)-1-Hydroxy-3-{N-methanesulfonyl-N-[4-(4-trifluoromethylphenoxy)-phenyl]amino}methyl-4-methyl-1,4-diazepan-2-one]: the IC50 came to 406 nM on MMP-9 and 1250 nM against MMP-2.

`O=C1[C@H](CS(=O)(=O)c2ccc(Oc3ccccc3)cc2)NCCCN1O` [Compound 69, (3R)-1-Hydroxy-3-(4-phenoxy)benzenesulfonylmethyl-1,4-diazepan-2-one]: the figures for the IC50 against MMP-9 and against MMP-2 were 30.6 nM and 46.7 nM, respectively.

Consider `COc1ccc(Oc2ccc(S(=O)(=O)C3CCCCN(O)C3=O)cc2)cc1` (stereo not drawn) [Compound 70, 1-Hydroxy-3-[4-(4-methoxy-phenoxy)-benzenesulfonyl]-azepan-2-one], for which the IC50 on MMP-9 amounted to 31 nM; at MMP-2 (read-out: MMP-2 nM IC50) it was 95.9 nM.

On to `O=C1C(S(=O)(=O)c2ccc(Oc3ccc(OC(F)(F)F)cc3)cc2)CCCCN1O` (stereo not drawn) [Compound 71, 1-Hydroxy-3-[4-(4-trifluoromethoxy-phenoxy)-benzenesulfonyl]-azepan-2-one], for which the IC50 on MMP-9 stood at 44.4 nM; against MMP-2 it was 110 nM.

For `COc1ccc(Oc2ccc(S(=O)(=O)C3CCCN(O)C3=O)cc2)cc1` (stereo not drawn) [Compound 72, 1-Hydroxy-3-[4-(4-methoxy-phenoxy)-benzenesulfonyl]-piperidin-2-one], the IC50 against MMP-9 came out at 87.9 nM; on MMP-2 (read-out: MMP-2 nM IC50) it was 167 nM.
